Experimental data published in patent US10494332B2, “Protein tyrosine phosphatases or SHP2 inhibitors and uses thereof” (Indiana University Research and Technology Corporation, priority 2015, dated 2019).

Assays:
Assay type in all cases: biochemical
[1] = molecular target: T1, STEP (Homo sapiens, UniProt P54829); experiment: PTP inhibition assay (pNPP); details: IC50 STEP, pNPP at Km, pH 7.0, 25° C.
T1 sequence (P54829 1-565): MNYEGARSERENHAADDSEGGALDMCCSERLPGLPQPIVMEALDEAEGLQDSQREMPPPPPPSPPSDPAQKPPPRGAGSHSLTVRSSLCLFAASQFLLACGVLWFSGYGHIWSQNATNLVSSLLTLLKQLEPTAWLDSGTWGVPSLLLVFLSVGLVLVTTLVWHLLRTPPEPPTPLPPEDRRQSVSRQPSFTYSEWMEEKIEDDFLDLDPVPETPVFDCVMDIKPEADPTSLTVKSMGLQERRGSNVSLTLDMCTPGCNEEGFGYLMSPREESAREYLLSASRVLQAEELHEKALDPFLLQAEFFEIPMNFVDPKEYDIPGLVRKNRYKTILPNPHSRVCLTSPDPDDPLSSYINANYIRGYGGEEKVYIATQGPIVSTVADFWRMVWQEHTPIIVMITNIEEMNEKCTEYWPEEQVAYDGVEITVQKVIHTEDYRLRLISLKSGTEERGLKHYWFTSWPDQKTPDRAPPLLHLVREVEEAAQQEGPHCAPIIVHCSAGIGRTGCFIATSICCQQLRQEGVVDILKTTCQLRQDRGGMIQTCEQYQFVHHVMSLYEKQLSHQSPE

[2] = molecular target: T2, LMWPTP (Homo sapiens, UniProt P24666); experiment: PTP inhibition assay (pNPP)
T2 sequence (P24666 1-158): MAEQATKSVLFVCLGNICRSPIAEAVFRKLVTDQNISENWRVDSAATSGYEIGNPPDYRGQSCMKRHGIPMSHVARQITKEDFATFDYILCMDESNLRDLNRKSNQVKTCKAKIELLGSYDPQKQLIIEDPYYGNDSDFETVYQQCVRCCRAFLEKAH

[3] = molecular target: TbPTP1 (Trypanosoma brucei brucei, UniProt Q38AT7); experiment: PTP inhibition assay (pNPP); details: IC50 TbPTP1, pNPP at Km, pH 7.0, 25° C.
[4] = molecular target: T3, VHX (Homo sapiens, UniProt Q9NRW4); experiment: PTP inhibition assay (pNPP); details: IC50 VHX, pNPP at Km, pH 7.0, 25° C.
T3 sequence (Q9NRW4 1-184): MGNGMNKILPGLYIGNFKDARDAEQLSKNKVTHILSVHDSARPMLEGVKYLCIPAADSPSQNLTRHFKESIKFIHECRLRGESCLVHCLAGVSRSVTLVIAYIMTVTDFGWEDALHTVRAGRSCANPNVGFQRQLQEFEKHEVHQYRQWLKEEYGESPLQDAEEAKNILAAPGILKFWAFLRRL

[5] = molecular target: SHP1 (Homo sapiens, UniProt P29350); experiment: PTP inhibition assay (pNPP); details: pNPP at Km, pH 7.0, 25° C.
[6] = molecular target: T4, Laforin (Homo sapiens, UniProt O95278); experiment: PTP inhibition assay (pNPP); details: for IC50: pNPP at Km, pH 7.0, 25° C., read-out: IC50 Laforin
T4 sequence (O95278 1-331): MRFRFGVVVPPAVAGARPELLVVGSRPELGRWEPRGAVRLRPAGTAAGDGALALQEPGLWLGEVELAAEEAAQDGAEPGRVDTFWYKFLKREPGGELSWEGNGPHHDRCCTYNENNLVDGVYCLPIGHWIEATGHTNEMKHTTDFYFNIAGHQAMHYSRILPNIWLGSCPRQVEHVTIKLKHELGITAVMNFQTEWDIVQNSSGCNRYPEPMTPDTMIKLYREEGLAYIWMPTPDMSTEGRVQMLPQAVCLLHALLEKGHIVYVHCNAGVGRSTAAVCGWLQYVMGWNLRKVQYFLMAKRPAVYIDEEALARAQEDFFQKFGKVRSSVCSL

[7] = molecular target: T5, PEST (Homo sapiens, UniProt Q05209); experiment: PTP inhibition assay (pNPP); details: pNPP at Km, pH 7.0, 25° C.; read-out: IC50 PEST
T5 sequence (Q05209 1-780): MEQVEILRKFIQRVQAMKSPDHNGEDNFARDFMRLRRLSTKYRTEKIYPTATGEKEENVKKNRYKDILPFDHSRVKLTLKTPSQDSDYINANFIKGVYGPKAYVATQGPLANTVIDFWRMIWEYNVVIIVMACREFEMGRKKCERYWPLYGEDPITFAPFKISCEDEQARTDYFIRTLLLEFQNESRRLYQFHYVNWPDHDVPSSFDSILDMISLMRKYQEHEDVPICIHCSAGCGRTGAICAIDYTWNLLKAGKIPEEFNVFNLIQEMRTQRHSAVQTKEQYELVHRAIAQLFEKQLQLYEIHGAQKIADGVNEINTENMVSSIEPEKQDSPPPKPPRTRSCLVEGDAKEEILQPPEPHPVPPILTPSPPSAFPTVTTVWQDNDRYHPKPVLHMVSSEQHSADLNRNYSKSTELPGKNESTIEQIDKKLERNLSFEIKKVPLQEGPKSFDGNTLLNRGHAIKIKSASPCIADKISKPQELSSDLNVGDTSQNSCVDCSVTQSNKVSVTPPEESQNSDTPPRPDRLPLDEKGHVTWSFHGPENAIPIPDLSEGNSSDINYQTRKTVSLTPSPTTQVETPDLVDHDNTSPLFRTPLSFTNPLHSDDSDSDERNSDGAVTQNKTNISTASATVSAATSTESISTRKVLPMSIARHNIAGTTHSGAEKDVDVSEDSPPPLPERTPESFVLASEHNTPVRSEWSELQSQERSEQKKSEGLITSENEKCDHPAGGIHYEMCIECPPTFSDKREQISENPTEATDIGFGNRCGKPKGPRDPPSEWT

[8] = molecular target: T6, SHP2 (Homo sapiens, UniProt Q06124); experiment: SHP2 phosphatase inhibition assay (pNPP); details: pNPP at Km, pH 7.0, 25° C.; read-out: IC50 SHP2
T6 sequence (Q06124 224-528): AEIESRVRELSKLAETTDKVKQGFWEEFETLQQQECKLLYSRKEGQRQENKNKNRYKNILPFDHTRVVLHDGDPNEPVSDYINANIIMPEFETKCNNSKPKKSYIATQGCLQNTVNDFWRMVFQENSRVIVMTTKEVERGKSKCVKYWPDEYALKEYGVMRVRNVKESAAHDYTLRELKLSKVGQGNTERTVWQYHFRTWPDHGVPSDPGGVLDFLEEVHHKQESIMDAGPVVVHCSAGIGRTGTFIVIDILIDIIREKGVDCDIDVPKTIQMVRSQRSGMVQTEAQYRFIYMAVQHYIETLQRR

[9] = molecular target: T7, PTP1B (Homo sapiens, UniProt P18031); experiment: PTP inhibition assay (pNPP); details: pNPP at Km, pH 7.0, 25° C.
T7 sequence (P18031 1-435): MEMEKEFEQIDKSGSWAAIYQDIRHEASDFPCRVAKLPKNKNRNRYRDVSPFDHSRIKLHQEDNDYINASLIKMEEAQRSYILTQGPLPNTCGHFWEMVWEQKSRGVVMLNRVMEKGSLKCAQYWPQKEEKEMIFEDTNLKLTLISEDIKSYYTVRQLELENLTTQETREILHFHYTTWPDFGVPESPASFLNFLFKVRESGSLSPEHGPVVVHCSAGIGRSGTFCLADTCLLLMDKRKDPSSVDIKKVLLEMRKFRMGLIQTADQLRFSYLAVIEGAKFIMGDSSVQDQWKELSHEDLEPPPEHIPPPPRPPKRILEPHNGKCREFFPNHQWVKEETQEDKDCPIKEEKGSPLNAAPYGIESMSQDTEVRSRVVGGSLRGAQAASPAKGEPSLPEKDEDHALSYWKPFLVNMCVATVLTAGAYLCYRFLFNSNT

[10] = molecular target: T8, LYP (Homo sapiens, UniProt Q9Y2R2); experiment: PTP inhibition assay (pNPP); details: pNPP at Km, pH 7.0, 25° C.
T8 sequence (Q9Y2R2 1-807): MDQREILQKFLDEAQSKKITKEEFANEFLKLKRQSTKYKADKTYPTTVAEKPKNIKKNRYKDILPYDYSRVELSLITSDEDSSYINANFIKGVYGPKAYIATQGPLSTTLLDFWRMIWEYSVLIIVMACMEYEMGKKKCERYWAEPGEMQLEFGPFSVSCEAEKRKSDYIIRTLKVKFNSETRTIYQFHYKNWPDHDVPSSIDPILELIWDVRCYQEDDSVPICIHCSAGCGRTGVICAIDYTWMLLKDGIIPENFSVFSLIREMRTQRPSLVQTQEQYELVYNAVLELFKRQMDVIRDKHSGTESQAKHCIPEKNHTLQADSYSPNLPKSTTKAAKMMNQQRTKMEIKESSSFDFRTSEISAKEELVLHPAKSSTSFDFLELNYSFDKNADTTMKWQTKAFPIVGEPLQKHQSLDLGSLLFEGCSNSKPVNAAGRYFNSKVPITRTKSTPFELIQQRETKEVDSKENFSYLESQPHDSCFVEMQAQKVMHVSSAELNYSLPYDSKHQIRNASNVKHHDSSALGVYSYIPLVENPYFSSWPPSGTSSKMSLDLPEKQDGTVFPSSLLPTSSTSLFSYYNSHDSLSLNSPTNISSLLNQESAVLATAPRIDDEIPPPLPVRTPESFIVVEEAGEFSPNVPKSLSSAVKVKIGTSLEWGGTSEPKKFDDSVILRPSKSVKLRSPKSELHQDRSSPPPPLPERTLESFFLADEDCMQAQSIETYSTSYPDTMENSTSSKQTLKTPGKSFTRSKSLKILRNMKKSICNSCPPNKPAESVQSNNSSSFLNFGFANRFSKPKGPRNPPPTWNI

[11] = molecular target: T9, CD45 (Homo sapiens, UniProt P08575); experiment: PTP inhibition assay (pNPP); details: pNPP at Km, pH 7.0, 25° C.
T9 sequence (P08575 26-1306): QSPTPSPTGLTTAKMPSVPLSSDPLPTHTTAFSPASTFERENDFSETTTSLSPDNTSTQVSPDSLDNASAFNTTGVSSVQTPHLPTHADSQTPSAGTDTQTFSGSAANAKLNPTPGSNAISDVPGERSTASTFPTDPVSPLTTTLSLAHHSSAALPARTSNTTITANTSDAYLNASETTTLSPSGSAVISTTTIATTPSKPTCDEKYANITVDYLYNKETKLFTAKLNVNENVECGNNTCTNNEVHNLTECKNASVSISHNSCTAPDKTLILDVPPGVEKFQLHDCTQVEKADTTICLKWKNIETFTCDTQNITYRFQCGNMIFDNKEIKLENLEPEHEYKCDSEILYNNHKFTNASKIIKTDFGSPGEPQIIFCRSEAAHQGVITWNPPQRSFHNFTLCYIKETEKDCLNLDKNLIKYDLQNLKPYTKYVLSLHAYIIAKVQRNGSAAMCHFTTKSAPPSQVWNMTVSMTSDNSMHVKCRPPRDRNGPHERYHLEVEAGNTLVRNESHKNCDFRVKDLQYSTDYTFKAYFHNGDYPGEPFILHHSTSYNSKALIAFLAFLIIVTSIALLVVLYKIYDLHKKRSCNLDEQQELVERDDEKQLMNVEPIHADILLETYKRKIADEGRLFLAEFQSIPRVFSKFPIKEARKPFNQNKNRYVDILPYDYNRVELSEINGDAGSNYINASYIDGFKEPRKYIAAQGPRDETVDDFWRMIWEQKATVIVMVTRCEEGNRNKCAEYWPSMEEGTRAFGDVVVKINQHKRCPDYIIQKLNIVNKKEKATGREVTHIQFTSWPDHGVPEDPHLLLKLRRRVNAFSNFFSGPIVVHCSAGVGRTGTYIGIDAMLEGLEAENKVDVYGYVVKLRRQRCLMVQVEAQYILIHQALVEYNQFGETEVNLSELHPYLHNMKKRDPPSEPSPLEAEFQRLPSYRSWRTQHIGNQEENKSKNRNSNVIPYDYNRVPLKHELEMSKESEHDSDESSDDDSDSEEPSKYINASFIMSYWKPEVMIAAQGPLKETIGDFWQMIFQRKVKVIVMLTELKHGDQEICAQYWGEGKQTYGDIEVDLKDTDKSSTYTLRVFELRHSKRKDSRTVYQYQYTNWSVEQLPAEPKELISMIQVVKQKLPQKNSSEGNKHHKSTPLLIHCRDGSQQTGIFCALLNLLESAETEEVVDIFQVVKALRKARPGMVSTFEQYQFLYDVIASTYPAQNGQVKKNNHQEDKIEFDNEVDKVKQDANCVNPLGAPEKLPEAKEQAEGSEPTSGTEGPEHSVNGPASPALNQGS

Chain of SHP1 (P29350 whole entry): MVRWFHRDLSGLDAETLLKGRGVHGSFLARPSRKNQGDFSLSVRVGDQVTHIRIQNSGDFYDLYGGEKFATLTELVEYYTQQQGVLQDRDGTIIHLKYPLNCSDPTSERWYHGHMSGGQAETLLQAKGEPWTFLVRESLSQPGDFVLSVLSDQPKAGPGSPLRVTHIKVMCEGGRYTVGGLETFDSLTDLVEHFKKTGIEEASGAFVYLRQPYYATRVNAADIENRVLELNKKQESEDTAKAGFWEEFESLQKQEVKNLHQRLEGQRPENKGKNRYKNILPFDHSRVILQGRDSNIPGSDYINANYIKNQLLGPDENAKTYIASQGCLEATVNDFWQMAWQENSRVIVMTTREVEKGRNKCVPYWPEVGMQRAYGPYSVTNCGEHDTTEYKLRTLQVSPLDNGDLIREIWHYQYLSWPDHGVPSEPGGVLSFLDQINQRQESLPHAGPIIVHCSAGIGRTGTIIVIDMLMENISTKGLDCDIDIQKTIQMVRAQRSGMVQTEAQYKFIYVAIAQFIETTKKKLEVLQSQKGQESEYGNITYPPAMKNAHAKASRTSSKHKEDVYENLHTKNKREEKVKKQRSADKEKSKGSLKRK
Chain of TbPTP1 (Q38AT7 entry or part of it): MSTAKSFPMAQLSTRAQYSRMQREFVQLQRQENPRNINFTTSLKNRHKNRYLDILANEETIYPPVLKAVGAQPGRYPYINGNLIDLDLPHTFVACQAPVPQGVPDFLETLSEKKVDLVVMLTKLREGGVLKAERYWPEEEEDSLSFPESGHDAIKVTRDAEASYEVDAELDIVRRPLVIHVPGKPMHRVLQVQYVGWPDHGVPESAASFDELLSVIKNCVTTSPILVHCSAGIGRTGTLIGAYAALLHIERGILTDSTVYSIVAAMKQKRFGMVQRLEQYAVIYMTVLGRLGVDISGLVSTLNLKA

SMILES	IC50 [5]	IC50 ([2]; pNPP at Km, pH 7.0, 25° C.)	IC50 [6]	IC50 [7]	further results
O=C(Nc1ccc(-n2ccnc2)cc1)C(c1ccccc1)S(=O)(=O)O (centres unmarked) [Compound L319M63]	> 200 µM				IC50 [1]: > 100 µM; IC50 ([2]; pH 7): 7.7 µM; IC50 [3]: > 100 µM; IC50 [4]: > 200 µM
O=C(Nc1nnc(-c2ccccc2)s1)C(c1ccccc1)S(=O)(=O)O (centres unmarked) [Compound L319M73-2]		10.2 µM	1.3 µM	> 200 µM	Fold specificity for Laforin over LMPTP ([6]; ratio of IC50): 8 fold; Fold specificity for Laforin over other PTPs ([6]; ratio of IC50): 100 fold
O=C(Nc1nc2ccccc2s1)C(c1ccccc1Cl)S(=O)(=O)O (centres unmarked) [Compound L319N15-18]		> 100 µM	32 µM		IC50 [8]: > 100 µM; IC50 [9]: > 100 µM; IC50 [10]: > 100 µM; IC50 [11]: > 100 µM
O=C(O)Cc1csc(NC(=O)C(c2ccccc2)S(=O)(=O)O)n1 (centres unmarked) [Compound L319N72]		98.1 µM	4.8 µM	> 200 µM	
CO[C@@]1(NC(=O)C(C(=O)O)c2ccc(O)cc2)C(=O)N2C(C(=O)O)=C(CSc3nnnn3C)CO[C@@H]21 (some centres unmarked) [moxalactam, reference compound]	170 µM				
